The text below walks through data of publication PMC10454726 (International Journal of Molecular Sciences, 2023).

Data set [1] has as its system streptozotocin-induced diabetic rats. Kind of data set: Animal weight, food and water consumption in streptozotocin-induced diabetic rats. The following applies: 14 days of treatment, weeks 5 to 7. It counts as in vivo, Wistar rat. As for the experimental part:
Six female (three for each compound: FC-114 and FC-122) (220 ± 10 g, for the acute toxicity assay) and forty male (215 ± 20 g, for the pharmacologic study) albino Wistar rats were acquired from the Isolation and Animal Facility Unit, Facultad de Estudios Superiores Cuautitlán (FESC), Universidad Nacional Autónoma de México (UNAM). They were kept in standard polypropylene boxes under controlled temperature (24 ± 4 °C) on a 12 h light/dark cycle and provided conventional food (formula 5001, Rat Chow) and purified water ad libitum. […] At the end of the experiment, the animals were taken to the humanitarian endpoint by the intraperitoneal (ip) administration of 75 mg/kg of sodium pentobarbital to perform a necropsy in the bioterium of FESC, UNAM. During the necropsy, blood serum was extracted to quantify glucose, triacylglycerides, cholesterol, and insulin. The study was conducted based on the guidelines of the Declaration of Helsinki and approved by the Institutional Review Board: Internal Committee for the Care and Use of Experimentation Animals (CICUAE, according to the initials in Spanish, C23_02 on March 2023) of the FESC UNAM (Mexico). It complies with the Mexican norm for this matter (NOM-062-ZOO-1999, Technical Specifications for the Production, Care, and Use of Laboratory Animals, SAGARPA), as well as the Guide for the Care and Use of Laboratory Animals of the National Research Council and National Institutes of Health (NIH Publications No. 8023, revised 1978).
(§1) After a week of acclimation, 35 male Wistar rats were given a single intraperitoneal dose of STZ (Sigma Chemical Co. Toluca, Estado de México, Mexico) at a dosage of 45 mg/kg of body weight, after fasting for 12 h overnight with free access to water. To prevent initial drug-induced hypoglycemia mortality, these animals were given a 10% sucrose solution 24 h after administration. STZ was dissolved in 0.1 M of sodium citrate buffer (pH 4.5) and administered in a final volume of 5 mL/kg. A week after STZ injection, diabetes in streptozotocin rats was confirmed by measuring fasting blood glucose (by glucose oxidase method). Animals with a blood glucose (tail vein) above 126 mg/dL were considered diabetic and used for the experiment to create groups 2, 3, 4, 5, 6, and 7 [1, 13]. Blood glucose levels were measured using a glucometer (Accu-Chek Active, Roche, Mannheim, Germany) and reactive strips (Accu-Chek Active Glucose test strips, Roche). The presence of hyperglycemia and insulin level confirmed a model very similar to T2D in humans. For the pharmacological study, the final number of animals was 35 male rats, with 3 rats being sacrificed during the treatment stage. One was administered with FC-114 and two with acarbose. The first rat was damaged during oral glucose administration in the OGTT at week 5, and the other rats had gastrointestinal complications in week 7.
(§2) The diabetic animals in group 2 (untreated) were given 4% v/v aqueous EtOH solution (vehicle of treatments) in a volume of 6.5 mL/kg body weight. The other groups (3–7) received different treatments for 14 days (weeks 5 to 7). […] All of the treatments were at equimolar doses of PIO and adjusted to the weekly weight of each rat. […] The commercial PIO tablet (30 mg) was crushed in 7.5 mL of vehicle and given to each animal in 4.0 mg/mL of suspension. The FC-114 and FC-122 suspensions were created at 6.2 and 6.0 mg/mL, respectively. The commercial acarbose tablet (50 mg) was crushed in 7.5 mL of the vehicle and given to each animal in a suspension of 6.6 mg/mL. Each suspension was used within 2 days of its preparation, and the administration volume was near to 2.5 mL for each rat.

For data set [2] the test system is unchanged. Nature of the data set: Oral glucose tolerance test in streptozotocin-induced diabetic rats. On the set-up: AUC of the OGTT: unit not given here. As to conditions: for glucose blood levels in OGTT compared to untreated animals: after 14 days of administration, ANOVA/Bonferroni. It counts as in vivo, Wistar rat. As for the experimental part: as §1, §2
The OGTT was carried out in weeks 3, 4, 5, 6, and 7. Prior to the OGTT, all animal groups fasted overnight for eight hours with free access to water. Each rat was weighed and then received a 2 g/kg glucose overload orally and blood samples were taken from the tail vein [13, 97]. Glucose levels were measured using a glucometer (Accu-Chek Active, Roche, Mannheim, Germany) at 0, 30, 60, 90, 120, and 180 min after glucose administration. The AUC of the OGTT was calculated using the blood glucose concentration over time and the GraphPad Prism 8.0.1 software package (GraphPad Software; Science Inc., San Diego, CA, USA) was used to compare the effectiveness of the treatments.

The conditions of data set [3]: cited from earlier work.
The subject of data set [4] is streptozotocin-induced diabetic rats. Kind of data set: Weekly fasting glucose in streptozotocin-induced diabetic rats. The class given is in vivo, Wistar rat. The following applies: after 7 and 14 days of treatment (weeks 6 and 7). As for the experimental part: as §1, §2
For data set [5] the following is noted: cited from earlier work. The source holds these as a separate data set.
Data set [6] in a line: Cytotoxic effect on Human Foreskin fibroblasts (SRB). As to conditions: HFF-1 human foreskin fibroblasts, HFF-1 cells. It counts as cell-based. As for the experimental part: However, at high concentrations, they can be harmful to cells. For humans, doses less than 100 mg/day are considered safe. […] Therefore, we conducted cytotoxicity assays on Human Foreskin fibroblasts (HFF-1) and an AOT on female Wistar rats to assess their safety.
In a 96-well plate, 7000 cells per well of Human Foreskin fibroblasts (HFF-1) were cultured. […] Untreated cells were also included as a negative control. At the end of the incubation period, the cell contents were precipitated with 50 µL of a 50% aqueous solution of trichloroacetic acid (TCA) at 4 °C for 1 h. The supernatant was discarded and washed 5 times with distilled water. Afterward, the plates were allowed to dry at room temperature. The cell contents were incubated with 100 µL of a 0.04% sulforhodamine B (SRB) solution for 1 h at room temperature. The excess SRB was removed by washing with a 1% aqueous acetic acid solution. […] With the data obtained, the viability of treated cells was calculated by comparing the control without treatment. CC50 value was determined by employing BioStat Pro 5.9.8 software (AnalystSoft Inc., Brandon, FL, USA).

Data set [7] has as its system streptozotocin-induced diabetic rats. The following applies: cited from earlier work.
Data set [8] concerns humans. The following applies: cited from earlier work.
In data set [9] the target is α-glucosidase from Rominococcus obeum (Blautia obeum, UniProt A5ZY13). Kind of data set: Enzymatic kinetics of α-glucosidase inhibition (pNPG substrate). It counts as biochemical. As for the experimental part:
The kinetic studies for PTP1B and α-glucosidase were carried out under the same conditions described in the references.

Where [10] appears, read: Week 5 (day 1 of treatment), oral, glibenclamide 0.6, FC-114 51.3, FC-122 49.1, PIO 30, acarbose 54.3 mg/kg/day.
Setting [11] is: Week 6 (day 7 of treatment), same doses.
Where [12] appears, read: Week 7 (day 14 of treatment), same doses.

α-glucosidase from Rominococcus obeum, sequence (A5ZY13 entry or part of it): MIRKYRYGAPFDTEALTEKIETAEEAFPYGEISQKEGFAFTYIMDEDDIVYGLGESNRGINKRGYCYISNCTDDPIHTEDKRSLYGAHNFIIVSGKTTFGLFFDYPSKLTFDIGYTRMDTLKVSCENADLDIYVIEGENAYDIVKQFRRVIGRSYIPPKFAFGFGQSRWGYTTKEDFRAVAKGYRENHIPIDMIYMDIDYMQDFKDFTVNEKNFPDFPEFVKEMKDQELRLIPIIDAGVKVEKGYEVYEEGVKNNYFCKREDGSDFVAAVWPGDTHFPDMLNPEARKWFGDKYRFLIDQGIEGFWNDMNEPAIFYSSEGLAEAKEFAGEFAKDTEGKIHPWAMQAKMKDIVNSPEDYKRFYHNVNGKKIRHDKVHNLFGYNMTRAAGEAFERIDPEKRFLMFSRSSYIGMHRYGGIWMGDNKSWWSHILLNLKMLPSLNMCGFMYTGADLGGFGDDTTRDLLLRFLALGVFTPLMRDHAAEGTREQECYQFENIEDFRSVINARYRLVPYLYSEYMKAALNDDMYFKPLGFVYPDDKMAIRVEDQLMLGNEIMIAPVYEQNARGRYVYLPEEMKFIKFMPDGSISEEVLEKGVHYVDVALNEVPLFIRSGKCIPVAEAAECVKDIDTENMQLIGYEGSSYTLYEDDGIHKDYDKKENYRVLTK

For the molecule `CCc1ccc(CCOc2ccc(CC3SC(=O)NC3=O)cc2)nc1` (stereo not shown) [PIO, pioglitazone], the “animal weight compared to the untreated group (T2D)” value in data set [1] was “difference in weight”. Also, the results for the “AUC of the OGTT” value in data set [2] (setting [10]), in [2] (setting [11]) and in data set [2] (setting [12]) were 49,677, 43,584 and 40,044, respectively. For the same molecule, the “glucose blood levels in OGTT compared to untreated animals” value in [2] is on record as “significantly improved”. Further, the “effectiveness in lowering blood glucose during the glucose tolerance curve (AUC)” value in [2] (week 7) is “most effective”. Besides, the “effective doses to cause decreases in blood glucose” value in data set [3] was 15 to 45 mg/kg.

In the case of `COc1ccc(Cl)cc1C(=O)NCCc1ccc(S(=O)(=O)NC(=O)NC2CCCCC2)cc1` [glibenclamide], the fasting glucose levels result in data set [4] is recorded as “downward trend”. For the same molecule, the “AUC of the OGTT” value in data set [2] (setting [10]) is recorded as 62,022; in data set [2] (setting [11]), 67,311; in data set [2] (setting [12]), 50,874. For the same molecule, the “glucose blood levels in OGTT compared to untreated animals” value in data set [2] was “ranked second”.

Regarding `CC1(C)[C@@H](O)CC[C@]2(C)[C@H]3C(=O)C=C4[C@@H]5C[C@@](C)(C(=O)O)CC[C@]5(C)CC[C@@]4(C)[C@]3(C)CC[C@@H]12` [GA, glycyrrhetinic acid], the LD50 in data set [5] was 610 mg/kg. Moreover, in [6], half-maximal cytotoxicity (CC50 at 48 h) was put at 62 ± 2 µM. In data set [7] (100 mg/kg), the insulin levels result is “increase in insulin levels” and the “plasma TAG, total cholesterol, HDL, VLDL, LDL” value is recorded as “restored normal levels”. The “blood glucose and insulin levels” value in data set [7] (oral 100 mg/kg, compared with glibenclamide 600 μg/kg) is “improved blood glucose and insulin levels”.

Consider `CC1(C)[C@@H](O[C@H]2O[C@H](C(=O)O)[C@@H](O)[C@H](O)[C@H]2O[C@@H]2O[C@H](C(=O)O)[C@@H](O)[C@H](O)[C@H]2O)CC[C@]2(C)[C@H]3C(=O)C=C4[C@@H]5C[C@@](C)(C(=O)O)CC[C@]5(C)CC[C@@]4(C)[C@]3(C)CC[C@@H]12` [GL, glycyrrhizic acid], for which the dose considered safe result in data set [8] is “less than 100 mg/day”.

In the case of `C[C@H]1O[C@H](O[C@H]2[C@H](O)[C@@H](O)[C@@H](O[C@H]3[C@H](O)[C@@H](O)C(O)O[C@@H]3CO)O[C@@H]2CO)[C@H](O)[C@@H](O)[C@@H]1N[C@H]1C=C(CO)[C@@H](O)[C@H](O)[C@H]1O` (stereo partly shown) [acarbose], the fasting glucose levels result in [4] is “downward trend”. Moreover, in [9] (Lineweaver-Burk plots), the “Inhibition type (α-glucosidase)” value is given as “competitive”. Besides, the Ki in data set [9] (substrate pNPG, Lineweaver-Burk) came out at 26.8 µM. In addition, the “AUC of the OGTT” value in data set [2] (setting [10]) is 81,327; in data set [2] (setting [11]), 81,507; in data set [2] (setting [12]) it was 71,240. Also, the “effective doses to cause decreases in blood glucose” value in [3] is 75 to 300 mg/kg.

As usually defined, the LD50 is the dose expected to kill half of the subjects tested. In general, CC50 refers to the concentration at which the toxic effect on the cells reaches its halfway point. One may read the Ki as a measure of affinity in units of concentration, obtained from inhibition or displacement.
